Measurements from ChEMBL document CHEMBL1156359, “New cytotoxic sesterterpenes from the sponge Sarcotragus species” (2001).
≈ marks a conversion by molar mass, not a printed value.

Experiments:
Format in all cases: functional
Settings in all cases: read-out: ED50 (the source's name)
A549 = test: Cytotoxicity against human A549 cells
SK-OV-3 = test: Cytotoxicity against human SKOV3 cells
XF498 = test: Cytotoxicity against human XF498 cells
HCT-15 = test: Cytotoxicity against human HCT15 cells
SK-MEL-2 = test: Cytotoxicity against human SK-MEL-2 cells

Row | SMILES | EC50 (A549) [µg/mL] | EC50 (SK-OV-3) [µg/mL] | EC50 (XF498) [µg/mL] | EC50 (HCT-15) [µg/mL] | EC50 (SK-MEL-2) [µg/mL]
1 | CC1=C(O)/C(=C\[C@H](C)CC/C=C(/C)CCCc2coc(Cc3ccoc3)c2)OC1=O [SARCOTIN E] | 3.8 (≈ 9.26 µM) | 6.24 (≈ 15.2 µM) | 5 (≈ 12.2 µM) | 7.31 (≈ 17.8 µM) | 8.37 (≈ 20.4 µM)
2 | CC1=C(O)[C@H](C/C(C)=C\CCC(C)/C=C\C=C(\C)CCCc2ccoc2)OC1=O (stereo not given in full) [SARCOTIN B] | 10.1 (≈ 25.3 µM) | 11.3 (≈ 28.4 µM) | 8.89 (≈ 22.3 µM) | 8.95 (≈ 22.5 µM) | 7.78 (≈ 19.5 µM)
3 | COc1cccc2c1C(=O)c1c(O)c3c(c(O)c1C2=O)C[C@@](O)(C(=O)CO)C[C@@H]3O[C@H]1C[C@H](N)[C@H](O)[C@H](C)O1 [DOXORUBICIN] | 0.02 (≈ 0.0368 µM) | 0.11 (≈ 0.202 µM) | 0.08 (≈ 0.147 µM) | 0.04 (≈ 0.0736 µM) | 0.02 (≈ 0.0368 µM)
4 | CC1=C(O)/C(=C/[C@H](C)CC/C=C(/C)CCCc2coc(Cc3ccoc3)c2)OC1=O [IRCININ 2] | 3.8 (≈ 9.26 µM) | 5.9 (≈ 14.4 µM) | 3.7 (≈ 9.01 µM) | 4.74 (≈ 11.5 µM) | 5.87 (≈ 14.3 µM)
5 | CC1=C(O)/C(=C\[C@H](C)CCC/C(C)=C/CCc2coc(Cc3ccoc3)c2)OC1=O [SARCOTIN D] | 4.98 (≈ 12.1 µM) | 9.39 (≈ 22.9 µM) | 6.52 (≈ 15.9 µM) | 9.82 (≈ 23.9 µM) | 10.2 (≈ 24.8 µM)
6 | CC1=C(O)[C@@H](C/C(C)=C\CC/C(C)=C/CC/C(C)=C/CCc2ccoc2)OC1=O | 16.9 (≈ 42.4 µM) | 26.8 (≈ 67.3 µM) | 20.4 (≈ 51.2 µM) | 27.5 (≈ 69 µM) | 16.3 (≈ 40.9 µM)
7 | CC1=C(O)[C@@H](C/C(C)=C\CCC(C)/C=C/C=C(\C)CCCc2ccoc2)OC1=O (stereo not given in full) [SARCOTIN A] | 29.7 (≈ 74.5 µM) | 22.1 (≈ 55.4 µM) | 24.8 (≈ 62.3 µM) | 27.2 (≈ 68.2 µM) | > 30
8 | CC1=C(O)/C(=C/[C@H](C)CCC/C(C)=C/CCc2coc(Cc3ccoc3)c2)OC1=O [IRCININ 1] | 3.72 (≈ 9.06 µM) | 6.55 (≈ 16 µM) | 5.42 (≈ 13.2 µM) | 6.91 (≈ 16.8 µM) | 8.95 (≈ 21.8 µM)
